Experiments:
[1] = target: T1, human adrenergic β2 receptor (Homo sapiens, UniProt P07550); experiment: Human adrenergic β2 receptor binding assay (3H-CGP12177, Sf9 membranes); details: for IC50: membranes from Sf9 cells, 0.14 nM 3H-CGP12177, 60 minutes at room temperature; for β1/β2 ratio: ratio of human β1 IC50 to human β2 IC50
T1 construct: purchased Perkin Elmer; host or cells: Sf9 cells
Protocol: (§1) Human Adrenergic β1 and β2 Receptor Binding Assays
(§2) The study of binding to human adrenergic β1 and β2 receptors was performed using commercial membranes prepared from Sf9 cells where they are overexpressed (Perkin Elmer).
(§3) The membrane suspensions (16 μg/well for β1 and 5 μg/well for β2) in assay buffer, 75 mM Tris/HCl with 12.5 mM MgCl2 and 2 mM EDTA pH=7.4, were incubated with 0.14 nM 3H-CGP12177 (Amersham) and different concentrations of the test compounds, in a final volume of 250 μl, in GFC Multiscreen 96 well plates (Millipore) pretreated with +0.3% PEI. Non specific binding was measured in the presence of 1 μM propanolol. Incubation was for 60 minutes at room temperature and with gentle shaking. The binding reactions were terminated by filtration and washing with 2.5 volumes of Tris/HCl 50 mM pH=7.4. The affinity of each test compound to the receptor was determined by using at least six different concentrations ran in duplicate. IC50 values were obtained by non-linear regression using SAS.

[2] = target: T2, human adrenergic β1 receptor (Homo sapiens, UniProt P08588); experiment: Human adrenergic β1 receptor binding assay (3H-CGP12177, Sf9 membranes); details: membranes from Sf9 cells, 0.14 nM 3H-CGP12177, 60 minutes at room temperature
T2 construct: purchased Perkin Elmer; host or cells: Sf9 cells
T2 sequence (P08588 whole entry): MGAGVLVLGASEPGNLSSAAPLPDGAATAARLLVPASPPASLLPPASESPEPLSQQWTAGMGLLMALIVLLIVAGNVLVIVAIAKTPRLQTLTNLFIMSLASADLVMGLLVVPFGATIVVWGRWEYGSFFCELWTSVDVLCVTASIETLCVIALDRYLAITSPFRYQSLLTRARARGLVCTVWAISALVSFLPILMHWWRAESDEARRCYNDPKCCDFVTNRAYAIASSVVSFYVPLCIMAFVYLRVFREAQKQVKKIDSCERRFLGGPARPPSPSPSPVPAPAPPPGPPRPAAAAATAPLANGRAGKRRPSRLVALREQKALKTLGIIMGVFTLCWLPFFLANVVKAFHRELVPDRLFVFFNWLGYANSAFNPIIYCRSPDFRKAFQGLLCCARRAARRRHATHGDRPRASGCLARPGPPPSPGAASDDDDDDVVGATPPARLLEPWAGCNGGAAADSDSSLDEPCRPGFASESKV
Protocol: as §1, §2, §3

T1 sequence (P07550 whole entry): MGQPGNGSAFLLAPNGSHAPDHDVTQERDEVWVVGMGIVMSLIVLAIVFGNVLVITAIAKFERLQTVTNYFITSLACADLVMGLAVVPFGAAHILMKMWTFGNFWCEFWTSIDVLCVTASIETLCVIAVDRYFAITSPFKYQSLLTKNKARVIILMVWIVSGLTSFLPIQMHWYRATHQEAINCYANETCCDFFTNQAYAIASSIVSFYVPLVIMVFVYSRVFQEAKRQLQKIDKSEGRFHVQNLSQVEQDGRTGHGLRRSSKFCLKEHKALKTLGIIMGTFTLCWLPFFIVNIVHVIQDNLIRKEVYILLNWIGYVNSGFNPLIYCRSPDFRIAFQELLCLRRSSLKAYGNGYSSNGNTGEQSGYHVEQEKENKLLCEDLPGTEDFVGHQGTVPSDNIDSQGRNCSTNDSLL

SMILES | IC50 [1] [nM] | β1/β2 ratio [1] | IC50 [2] [nM]
O=C(Nc1ccc(CCNC[C@H](O)c2ccc(O)c3[nH]c(=O)ccc23)cc1)NC(c1ccccc1)c1ccccc1 [Example 36, N-(diphenylmethyl)-N′-[4-(2-{[(2R)-2-hydroxy-2-(8-hydroxy-2-oxo-1,2-dihydroquinolin-5-yl)ethyl]amino}ethyl)phenyl]urea] | 4.5 | 4.3 | 19.5
COc1ccccc1CNC(=O)Nc1cccc(CCNCC(O)c2ccc(O)c3[nH]c(=O)ccc23)c1 [Example 9, N-[3-(2-{[(2R,S)-2-hydroxy-2-(8-hydroxy-2-oxo-1,2-dihydroquinolin-5-yl)ethyl]amino}ethyl)phenyl]-N′-(2-methoxybenzyl)urea] | 5.6 | 7.9 | 44.5
O=C(Nc1cccc(CCNC[C@H](O)c2ccc(O)c3[nH]c(=O)ccc23)c1)Nc1ccccc1-c1ccccc1 [Example 27, N-biphenyl-2-yl-N′-[3-(2-{[(2R)-2-hydroxy-2-(8-hydroxy-2-oxo-1,2-dihydroquinolin-5-yl)ethyl]amino}ethyl)phenyl]urea] | 9.7 | 2.5 | 24
CC(Cc1cccc(NC(=O)NCc2ccccc2)c1)NCC(O)c1ccc(O)c2[nH]c(=O)ccc12 [Example 3, N-benzyl-N′-[3-((2R,S)-2-{[(2R,S)-2-hydroxy-2-(8-hydroxy-2-oxo-1,2-dihydroquinolin-5-yl)ethyl]amino}propyl)phenyl]urea] | 12 | 8.2 | 98
O=C(NCc1ccccc1)Nc1cccc(CCNCC(O)c2ccc(O)c3[nH]c(=O)ccc23)c1 [Example 8, N-benzyl-N′-[3-(2-{[(2R,S)-2-hydroxy-2-(8-hydroxy-2-oxo-1,2-dihydroquinolin-5-yl)ethyl]amino}ethyl)phenyl]urea] | 4.4 | 11.0 | 49
COc1ccccc1CNC(=O)Nc1cccc(CC(C)NCC(O)c2ccc(O)c3[nH]c(=O)ccc23)c1 [Example 6, N-[3-(2R,S)-2-{[(2R,S)-2-hydroxy-2-(8-hydroxy-2-oxo-1,2-dihydroquinolin-5-yl)ethyl]amino}propyl)phenyl]-N′-(2-methoxybenzyl)urea] | 4.6 | 11.7 | 54
O=C(NCCCCc1ccccc1)Nc1cccc(CCNCC(O)c2ccc(O)c3[nH]c(=O)ccc23)c1 [Example 20, N-[3-(2-{[(2R,S)-2-hydroxy-2-(8-hydroxy-2-oxo-1,2-dihydroquinolin-5-yl)ethyl]amino}ethyl)phenyl]-N′-(4-phenylbutyl)urea] | 2.9 | 4.5 | 13
O=C(NCc1c(Cl)cccc1Cl)Nc1cccc(CCNCC(O)c2ccc(O)c3[nH]c(=O)ccc23)c1 [Example 17, N-(2,6-dichlorobenzyl)-N′-[3-(2-{[(2R,S)-2-hydroxy-2-(8-hydroxy-2-oxo-1,2-dihydroquinolin-5-yl)ethyl]amino}ethyl)phenyl]urea] | 6 | 13 | 78
O=C(NCCc1ccccc1)Nc1cccc(CCNCC(O)c2ccc(O)c3[nH]c(=O)ccc23)c1 [Example 11, N-[3-(2-{[(2R,S)-2-hydroxy-2-(8-hydroxy-2-oxo-1,2-dihydroquinolin-5-yl)ethyl]amino}ethyl)phenyl]-N′-(2-phenylethyl)urea] | 6.2 | 1.4 | 9
O=C(Nc1cccc(CCNC[C@H](O)c2ccc(O)c3[nH]c(=O)ccc23)c1)NC(c1ccccc1)c1ccccc1 [Example 26, N-(diphenylmethyl)-N′-[3-(2-{[(2R)-2-hydroxy-2-(8-hydroxy-2-oxo-1,2-dihydroquinolin-5-yl)ethyl]amino}ethyl)phenyl]urea] | 5.3 | 4.6 | 24.5
O=C(Nc1cccc(CCNCC(O)c2ccc(O)c3[nH]c(=O)ccc23)c1)NC12CC3CC(CC(C3)C1)C2 [Example 16, N-1-adamantyl-N′-[3-(2-{[(2R,S)-2-hydroxy-2-(8-hydroxy-2-oxo-1,2-dihydroquinolin-5-yl)ethyl]amino}ethyl)phenyl]urea] | 10 | 3.8 | 38.5
CC(C)(C)c1ccc(CNC(=O)Nc2cccc(CCNC[C@H](O)c3ccc(O)c4[nH]c(=O)ccc34)c2)cc1 (racemic) [Example 33, N-(4-tert-butylbenzyl)-N′-[3-(2-{[(2R,S)-2-hydroxy-2-(8-hydroxy-2-oxo-1,2-dihydroquinolin-5-yl)ethyl]amino}ethyl)phenyl]urea] | 7.6 | 6.0 | 45.5
O=C(NCC12CC3CC(CC(C3)C1)C2)Nc1cccc(CCNCC(O)c2ccc(O)c3[nH]c(=O)ccc23)c1 [Example 23, N-(1-adamantylmethyl)-N′-[3-(2-{[(2R,S)-2-hydroxy-2-(8-hydroxy-2-oxo-1,2-dihydroquinolin-5-yl)ethyl]amino}ethyl)phenyl]urea] | 5.9 |  | 36
O=C(Nc1ccccc1)Nc1cccc(CCNCC(O)c2ccc(O)c3[nH]c(=O)ccc23)c1 [Example 15, N-[3-(2-{[(2R,S)-2-hydroxy-2-(8-hydroxy-2-oxo-1,2-dihydroquinolin-5-yl)ethyl]amino}ethyl)phenyl]-N′-phenylurea] | 10.5 | 0.4 | 4.4
C[C@@H](Cc1cccc(NC(=O)Nc2ccccc2-c2ccccc2)c1)NC[C@H](O)c1ccc(O)c2[nH]c(=O)ccc12 [Example 32, N-biphenyl-2-yl-N′-[3-(2-{[(2R)-2-hydroxy-2-(8-hydroxy-2-oxo-1,2-dihydroquinolin-5-yl)ethyl]amino}propyl)phenyl]urea, b isomer] | 2.8 | 9.1 | 25.5
O=C(NCCCc1ccccc1)Nc1cccc(CCNCC(O)c2ccc(O)c3[nH]c(=O)ccc23)c1 [Example 12, N-[3-(2-{[(2R,S)-2-hydroxy-2-(8-hydroxy-2-oxo-1,2-dihydroquinolin-5-yl)ethyl]amino}ethyl)phenyl]-N′-(3-phenylpropyl)urea] | 2.6 | 7.4 | 19.5
